According to patent US10383938B2 (priority 2010, dated 2019):

Experiments:
TNF mRNA = assay: Local in vivo activity: TNF mRNA gene expression in draining lymph nodes by quantitative PCR (Example 11); design: species or system Balb/c male mice; settings: s.c. 1.0 mg/kg; for TNF mRNA Gene Expression in Lymph Nodes [fold increase versus control (s.d.)]: draining axial and brachial lymph nodes
Method: (§1) The final dose for either compound was 1.0 mg/kg. At each time point, the mice were bled, sacrificed, and the draining axial and brachial lymph nodes were removed and placed in RNA preservation fluid (RNA later reagent obtained from Ambion Corporation, Austin, Tex.). Serum samples were analyzed for TNF protein concentration (pg/ml) by ELISA as a measure of systemic presence of this cytokine. The draining lymph nodes were processed for measurement of TNF mRNA gene expression by quantitative PCR (7900HT Thermocycler obtained from Applied Biosystems, Carlsbad, Calif.). The data reported (Table 10) is the mean+/−standard deviation (s.d.) for each group. The “not detected” level for serum TNF concentration was less than 10 pg/ml.

TNF protein = assay: Local in vivo activity: serum TNF protein by ELISA (Example 11); design: species or system Balb/c male mice; settings: s.c. 1.0 mg/kg, mean (s.d.) of 4 mice, not detected = less than 10 pg/ml
Method: as §1

[1] = tested on: systemic tumor necrosis factor (TNF); assay: Systemic TNF induction in vivo after subcutaneous injection (Example 4); settings: mice
Method: The resiquimod preparation was made as an aqueous suspension in PBS.
At one hour and at three hours post dose, the mice were bled and systemic TNF was measured in the serum (pg/mL) by ELISA assay. The results are presented as the geometric means obtained for each group of five animals. […] This can be important in providing localized immune system enhancement without systemic TNF side effects.

[2] = tested on: interferon-gamma (IFNgamma); design: species or system mice; settings: mouse, in vivo
[3] = tested on: human peripheral mononuclear cells (PBMC); assay: TNF production in human PBMC (Example 7); type: cell-based; settings: for TNF: human PBMC, overnight at 37° C., ELISA
Method: The human peripheral blood mononuclear cells were prepared from human volunteers and placed in culture in 96 well microtiter plates. […] The cells were then incubated overnight at 37° C. The medium was removed and TNF concentration (ng/mL) was measured by ELISA assay (Table 6).

Compound	TNF mRNA Gene Expression in Lymph Nodes [fold increase versus control (s.d.)] (TNF mRNA; 1 hour post dose)	TNF mRNA Gene Expression in Lymph Nodes [fold increase versus control (s.d.)] (TNF mRNA; 3 hours post dose)	TNF mRNA Gene Expression in Lymph Nodes [fold increase versus control (s.d.)] (TNF mRNA; 6 hours post dose)	TNF mRNA Gene Expression in Lymph Nodes [fold increase versus control (s.d.)] (TNF mRNA; 18 hours post dose)	Serum TNF [pg/ml (s.d.)] (TNF protein; 1 hour post dose)	Serum TNF [pg/ml (s.d.)] (TNF protein; 3 hours post dose)	Serum TNF [pg/ml (s.d.)] (TNF protein; 6 hours post dose)	In Vitro Challenge of Isolated Spleenocytes, IFNgamma, Control PBS Challenge [2] [pg/mL]	In Vitro Challenge of Isolated Spleenocytes, IFNgamma, HA Antigen Challenge [2] [pg/mL]	other results
CCOCc1nc2c(N)nc3ccccc3c2n1CC(C)(C)O [Resiquimod, resiquimod, reference compound]	14.19 (3.83) fold increase versus control	4.82 (0.70) fold increase versus control	1.39 (0.27) fold increase versus control	0.90 (0.23) fold increase versus control	4082 (873) pg/ml	107 (35) pg/ml	18 (4) pg/ml	3.84	91.88	TNF concentration at Times Following Treatment, 1 hour ([1]; s.c. 1 mg/Kg, serum at 1 hour post dose, geometric mean of 5 animals): 1140.41 pg/mL; TNF concentration at Times Following Treatment, 3 hour ([1]; s.c. 1 mg/Kg, serum at 3 hours post dose, geometric mean of 5 animals): <5 pg/mL
CCCCCCCCCCCCCCCCCC(=O)NCCCCOn1c(CCCC)nc2c(N)nc3ccccc3c21 [N-(4-{[4-amino-2-butyl-1H-imidazo[4,5-c]quinolin-1-yl]oxy}butyl)octadecanamide]	0.65 (0.04) fold increase versus control	1.62 (1.23) fold increase versus control	7.23 (2.07) fold increase versus control	1.55 (0.28) fold increase versus control	not detected	not detected	not detected	4.82	293.51	cytokine induction effects, local versus systemic (in words) (TNF mRNA; TNF mRNA induced in draining lymph nodes without TNF protein in serum): primarily local; Serum TNF [pg/ml (s.d.)] (TNF protein; 18 hours post dose): not detected; systemic TNF response (in words) ([1]; subcutaneous injection, 1 mg/Kg, summary of Table 3): does not induce a systemic TNF response; TNF ([3]; 0.014 μM): 0.13 ng/mL; TNF ([3]; 0.043 μM): 0.17 ng/mL; TNF ([3]; 0.13 μM): 0.35 ng/mL; TNF ([3]; 0.37 μM): 2.51 ng/mL; TNF ([3]; 1.1 μM): 7.07 ng/mL; TNF ([3]; 3.3 μM): 28.73 ng/mL; TNF ([3]; 10 μM): 31.46 ng/mL; TNF ([3]; 30 μM): 29.47 ng/mL; induction of TNF-α production (in words) ([3]; summary statement, "as described above"): induce the production of TNF-α
